Source: the kinase profiling compilation of Christmann-Franck et al. (2016)
pKi: −log10 of the molar value.

Molecular target: SGK1 (human) (UniProt O00141)
Experiment: Flashplate

Chain of SGK1 (human) (O00141 whole entry, looked up): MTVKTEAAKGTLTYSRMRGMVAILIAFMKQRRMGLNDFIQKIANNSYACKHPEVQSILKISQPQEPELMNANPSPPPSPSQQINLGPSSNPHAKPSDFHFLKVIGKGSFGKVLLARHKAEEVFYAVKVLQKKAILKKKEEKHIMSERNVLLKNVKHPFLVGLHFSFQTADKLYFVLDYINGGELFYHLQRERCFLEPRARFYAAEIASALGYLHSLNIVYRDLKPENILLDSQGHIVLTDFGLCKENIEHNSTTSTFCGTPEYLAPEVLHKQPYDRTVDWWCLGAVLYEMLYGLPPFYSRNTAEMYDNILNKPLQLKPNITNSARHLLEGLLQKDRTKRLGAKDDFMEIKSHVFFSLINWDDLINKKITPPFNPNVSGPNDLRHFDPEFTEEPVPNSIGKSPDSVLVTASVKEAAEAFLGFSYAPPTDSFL

| Compound | pKi |
| --- | --- |
| COc1cc(-c2ccc3c(c2)Nc2ccc(C(=O)NCCNC(C)=O)cc2NC3=O)ccc1O | 5.00 |
| O=S(=O)(O)c1ccc(NCc2ccc3c(c2)OCO3)c2c(O)cccc12 | < 5.00 |
| CCc1cccc(NC(=O)Nc2ccc3c(c2)CCc2sc4ncnc(N)c4c2-3)c1 | < 5.00 |
| Cn1cc(-c2cnc(N)c3c(-c4ccc(NC(=O)Nc5cccc(F)c5)cc4)csc23)cn1 | 5.70 |
| c1cnc2nc(-c3ccc4[nH]ncc4c3)c(NC3CCCCC3)n2c1 | 5.60 |
| CCN1CCN(Cc2ccc(NC(=O)Nc3ccc(Oc4cc(NC)ncn4)cc3)cc2C(F)(F)F)CC1 | < 5.20 |
| CC(C)(C)c1n[nH]c2c1C(c1ccccc1F)C(C#N)=C(N)O2 (configuration not stated) | < 5.00 |
| CSc1c[nH]c2ncnc(NCCCO)c12 | < 5.00 |
| C[C@H](Nc1c(Nc2ccncc2)c(=O)c1=O)C1CCCCC1 | < 5.00 |
| N#CC1=C(N)n2c(s/c(=C\c3ccco3)c2=O)=C(C(N)=O)C1c1ccco1 (configuration not stated) | < 5.00 |
| Cc1c(-c2cccc(OCc3ccccc3)c2)c2c(N)ncnc2n1[C@H]1C[C@H](CN2CCCC2)C1 | < 5.00 |
| CN(C)CC(C)(C)CNc1nccc(-c2c(-c3ccc(F)cc3)nc3cnccn23)n1 | < 5.00 |
| N#Cc1cnc(NC(=O)Nc2ccc3cc(C(=O)O)ccc3c2)cn1 | < 5.00 |
| O=C(Nc1cnc2[nH]cc(-c3ccccc3)c2c1)c1cccc(F)c1F | 5.10 |
| COCCO[C@H]1CC[C@H](n2nc(-c3ccc(Nc4nc5cc(C)cc(C)c5o4)cc3)c3c(N)ncnc32)CC1 | < 5.00 |
| Cc1cccc(NC(=O)Nc2ccc(-c3csc4c(-c5cnn(C)c5)cnc(N)c34)cc2)c1 | < 5.00 |
| CCOc1nc(C(=O)NCc2ccc(S(C)(=O)=O)cc2)cc(N)c1Cl | < 5.00 |
| Cc1cccc(NC(=O)Nc2ccc(-c3csc4c(C#CCN(C)C)cnc(N)c34)cc2)c1 | 5.20 |
| CC1=NN(c2ccccc2)C(=O)/C1=C/c1c(C)c(C#N)c2nc3ccccc3n2c1O | < 5.00 |
| CCN(CCCOc1ccc2c(Nc3cc(CC(=O)Nc4cccc(F)c4)[nH]n3)ncnc2c1)CCOP(=O)(O)O | < 5.20 |
| NC(=O)c1cccc2[nH]c(-c3ccc(C4CCCNC4)cc3F)nc12 (configuration not stated) | < 5.00 |
| CCOc1nc(NC(C)=O)cc(N)c1C#N | < 5.00 |

| Compound | pKi |
| --- | --- |
| CCN(CC)C(=O)Nc1ccc2nc(-c3ccco3)c(-c3ccco3)nc2c1 | < 5.00 |
| COc1cc2c(Oc3ccc4[nH]c(C)cc4c3F)ncnc2cc1OCCCN1CCCC1 | < 5.00 |
| CCN(CC)CCOc1ccc(-c2nc3c(C(N)=O)cccc3[nH]2)cc1 | < 5.00 |
| c1ccc(Nc2nc(-c3ccc4[nH]ncc4c3)cs2)cc1 | 5.60 |
| Cc1cccc(NC(=O)Nc2ccc(-c3csc4c(-c5cn[nH]c5)cnc(N)c34)cc2)c1 | < 5.00 |
| Cc1nc2ccc(NS(=O)(=O)c3ccc(N)cc3)cc2nc1C | < 5.00 |
| Cc1ccc(-c2nn(C(C)(C)C)c3ncnc(N)c23)cc1 | < 5.00 |
| CN1CCN(Cc2ccc3c(c2)Cc2c(-c4csc(C#CCOCC5CC5)c4)n[nH]c2-3)CC1 | < 5.00 |
| O=C1NCc2c1cccc2-c1ccc(Nc2nc3ccccc3o2)cc1 | < 5.00 |
| CN1CCC(NC(=O)c2cc3c(-c4ccccc4)n[nH]c3s2)CC1 | 5.20 |
| C[C@H](Nc1nccc(-c2c(-c3ccc(F)cc3)nc3occn23)n1)c1ccccc1 | < 5.00 |
| Cc1ccc(CNc2ccc3nnc(-c4ccccc4)n3n2)cc1 | < 5.00 |
| O=C(Nc1cnccn1)Nc1ccnc2c(F)cccc12 | < 5.00 |
| COc1ccc(-c2cc3nccn3c(Nc3ccccc3C(N)=O)n2)cc1OC | < 5.00 |
| CO[C@@H](C(=O)N1Cc2[nH]nc(NC(=O)c3ccc(N4CCN(C)CC4)cc3)c2C1)c1ccccc1 | < 5.00 |
| FC(F)(F)c1ccc(Cn2cc(-c3ccc4[nH]ncc4c3)nn2)c(C(F)(F)F)c1 | < 5.00 |
| Cc1cccc(NC(=O)Nc2ccc(-c3csc4c(C#CCN5CCOCC5)cnc(N)c34)cc2)c1 | 5.20 |
| O=c1ncn2nc(Sc3ccc(F)cc3F)ccc2c1-c1c(Cl)cccc1Cl | < 5.10 |
| CCCS(=O)(=O)Nc1ccc(-c2ccc3[nH]nc(NC(C)=O)c3c2)cc1 | < 5.00 |
| Cc1nccn2c(-c3ccnc(NCC4(O)CC4)n3)c(-c3ccc(F)cc3F)nc12 | < 5.00 |
| COCCNc1nccc(-c2c(-c3ccc(F)cc3)nc3cnccn23)n1 | < 5.00 |
| COc1ccc(C(=O)Nc2cnc3[nH]cc(-c4ccccc4)c3c2)cc1 | 5.00 |

| Compound | pKi |
| --- | --- |
| O=C(NCc1ccccc1)Nc1ncc([N+](=O)[O-])s1 | < 5.00 |
| COc1ccc2c(NC(=O)Nc3cc(C(F)(F)F)ccn3)ccnc2c1 | < 5.00 |
| Cc1cc(O)ccc1-n1c2cc(Cl)ccc2c(=O)c2c(N)nc(N)nc21 | 5.30 |
| CCOc1nc(C(=O)NCc2ccc(S(C)(=O)=O)cc2)cc(N)c1C#N | < 5.20 |
| Cc1ccc(F)c(NC(=O)Nc2ccc(-c3nsc4ncnc(N)c34)cc2)c1 | < 5.00 |
| O=C1Nc2cc(CCOc3ccc(N4CCOCC4)cc3)ccc2Nc2cc(-c3cn(Cc4cc(F)c(F)c(F)c4)c4cnccc34)ccc21 | < 5.00 |
| CC(C)(CO)CNc1nccc(-c2c(-c3ccc(F)cc3)nc3cnccn23)n1 | < 5.00 |
| O=C(NCc1ccc(Cl)c(Cl)c1)Nc1ccc2[nH]ncc2c1 | 6.30 |
| NC(=O)c1cc2c(Oc3ccc(Br)cc3)cncc2s1 | 5.70 |
| COc1cccc([C@@H](C)NC(=O)c2ccc(-c3ccncc3F)cc2OC)c1 | 6.20 |
| O=S(=O)(NCCNC/C=C/c1ccc(Br)cc1)c1cccc2cnccc12 | 6.00 |
| CCCOc1nc(NC(C)=O)cc(N)c1C#N | < 5.00 |
| CC1=NN(c2ccc(Cl)c(Cl)c2)C(=O)/C1=C\c1c(C)c(C#N)c2nc3ccccc3n2c1O | < 5.00 |
| CCN(CC)CCNC(=O)/C=C/c1cnc(N)c2c(-c3ccc(NC(=O)Nc4cccc(C)c4)cc3)csc12 | 5.70 |
| C[C@@H](Nc1nccc(-c2c(-c3ccc(F)cc3)nc3occn23)n1)c1ccccc1 | < 5.00 |
| CN(C)CC(=O)Nc1n[nH]c2ccc(-c3cn(Cc4ccccc4)nn3)cc12 | 5.70 |
| Cc1cc2nnc(SCc3cn4ccccc4n3)n2c2ccccc12 | < 5.00 |
| COC(=O)c1cc2c(-c3cccc(F)c3)cncc2s1 | < 5.00 |
| Cc1ccc(NC(=O)Nc2ccc(NC(=O)c3csc4ncnc(N)c34)cc2)cc1 | < 5.00 |
| CCN(CC)CC#Cc1ccc2c(c1)-c1[nH]nc(-c3ccc(C#N)nc3)c1C2 | < 5.00 |
| CN(C)c1cc2sncc2cc1NC(=O)C(=O)O | < 5.00 |
| O=C(Nc1cnc2[nH]cc(-c3ccccc3)c2c1)c1c(F)cccc1F | 6.20 |

| Compound | pKi |
| --- | --- |
| C/C(=N/NC(=N)N)c1cc(NC(=O)c2cccc(C(=O)Nc3cc(/C(C)=N\NC(=N)N)cc(/C(C)=N/NC(=N)N)c3)c2)cc(/C(C)=N/NC(=N)N)c1 | 5.90 |
| N#Cc1ncc2nc1OCCCCCOc1cc(OCCCO)c(Cl)cc1NC(=O)N2 | < 5.00 |
| CCCOc1cccc([C@@H](C)NC(=O)c2ccc(-c3ccncc3)cc2)c1 | 5.40 |
| NCCCOc1cc2c(c(-c3ccc(Nc4nc5ccc(Cl)cc5o4)cc3)c1)CNC2=O | 5.30 |
| O=C1Cc2c([nH]c3ccc([N+](=O)[O-])cc23)-c2ccccc2N1 | < 5.00 |
| N#Cc1c(O)[nH]c(=O)c2c(=N)oc3ccc(Cl)cc3c12 | < 5.00 |
| O=C1Nc2ccccc2Nc2nnccc21 | < 5.00 |
| Cc1cccc(NC(=O)Nc2ccc(-c3cccc4c3CNC4=O)cc2C)c1 | < 5.00 |
| NC(=O)c1sc2ccc(Cl)c(Cl)c2c1NC(=O)c1ccc(Cl)cc1 | < 5.00 |
| OCCNc1cc2cc(-c3ccccc3)ccc2cn1 | < 5.00 |
| Cc1nnc(-c2cc3c(Oc4ccc(C(F)(F)F)cc4)cncc3s2)o1 | < 5.00 |
| Nc1ncnc2onc(-c3ccc(NC(=O)Nc4cccc(C(F)(F)F)c4)cc3)c12 | < 5.00 |
| Cc1c(O)cccc1NC(=O)c1cnn2c(-c3ccccc3)ccnc12 | < 5.00 |
| NC(=O)c1sc(-n2cnc3ccccc32)cc1OCc1ccccc1C(F)(F)F | < 5.00 |
| Nc1ccc(-c2cncc(OC[C@@H](N)Cc3c[nH]c4ccccc34)c2)cc1C(=O)c1cccc(Cl)c1 | < 5.00 |
| O=c1nc(-c2cc3c(Oc4ccc(I)cc4)cncc3s2)[nH]o1 | 6.10 |
| NCCC(C(=O)Nc1ccc2[nH]ncc2c1)c1ccc(Cl)c(Cl)c1 (configuration not stated) | 7.70 |
| N#CCOc1ccc(Nc2nc(Nc3cccc(S(N)(=O)=O)c3)ncc2Br)cc1 | 6.40 |
| CNC(=O)c1cnc(N)c2c(-c3ccc(NC(=O)Nc4cccc(Cl)c4)cc3)csc12 | 5.50 |
| CN(C)c1ccc(CNC(=O)c2cc3c(-c4ccccc4)n[nH]c3s2)cc1 | 5.10 |
| CNC(=O)c1ccccc1Sc1ccc2c(/C=C/c3ccccn3)n[nH]c2c1 | < 5.00 |
| COc1cccc(NC(=O)c2cnn3c(-c4ccccc4)ccnc23)c1 | < 5.00 |

| Compound | pKi |
| --- | --- |
| Nc1nccc2scc(-c3ccc(NC(=O)Nc4cccc(Cl)c4)cc3)c12 | < 5.00 |
| c1ccc(Cc2cc(-c3ccc4[nH]ncc4c3)on2)cc1 | 5.80 |
| CC(C)Cn1c(N)nc2ccc(-c3c(-c4ccc(F)cc4)nc4sccn34)cc21 | < 5.00 |
| N#Cc1ncc2nc1OCCCCCOc1cc(OCC(O)CO)c(Cl)cc1NC(=O)N2 (configuration not stated) | < 5.00 |
| O=c1[nH]c2sc3c(c2c2nc(-c4ccncc4)nn12)CCCC3 | < 5.00 |
| NNc1cc(N2CCOCC2)nc(OCCc2ccccn2)n1 | < 5.00 |
| CCc1nc2c(c3cc(OC)c(OC)cc13)C(=O)NC2=O | < 5.00 |
| Nc1n[nH]c2cccc(-c3ccc(NC(=O)Nc4cc(CO)ccc4F)cc3)c12 | 6.40 |
| O=C(N[C@H](CO)c1ccccc1)c1ccc(-c2ccncc2)cc1 | 5.80 |
| O=C1CC(c2ccc(Cl)cc2Cl)Cc2[nH]c3cc(Cl)ccc3c(=O)c21 (configuration not stated) | < 5.00 |
| Fc1ccc(-c2nc3occn3c2-c2ccnc(NC3CCNCC3)n2)cc1 | < 5.00 |
| N[C@H](COc1cncc(-c2cc3cnccc3s2)c1)Cc1c[nH]c2ccccc12 | 6.00 |
| Cc1n[nH]c2cnc(-c3cncc(OC[C@@H](N)Cc4cccc(C(F)(F)F)c4)c3)cc12 | 7.20 |
| NS(=O)(=O)c1cccc(Nc2ncc3ccn(Cc4ccccc4)c3n2)c1 | 5.40 |
| Clc1csc2ncnc(Nc3ccccc3)c12 | < 5.00 |
| CCN1CCN(CCCC(=O)Nc2n[nH]c3nnc(-c4cccc(F)c4F)cc23)CC1 | < 5.00 |
| CNc1nccn2c(-c3ccnc(NCC(C)(C)CO)n3)c(-c3ccc(F)cc3)nc12 | < 5.00 |
| CC(C)Oc1ccc(-c2noc(-c3ccc(N[C@H]4CC[C@@H](C(=O)O)C4)cc3)n2)cc1Cl | < 5.00 |
| Cc1n[nH]c2ccc(-c3cncc(OCC(CN)Cc4ccccc4)c3)cc12 (configuration not stated) | 5.90 |
